Assay results: PubChem BioAssay AID248 (DTP/NCI, 2004)
“And” between values parts separate entries of the source, which are not always exact repeats. Equal values may be shown once. Inconclusive results and toxic doses are left out. No stated cut-off is given here; in the data, active means T/C of 150% or more; inactive means T/C below 125%.

Tested on: L1210 leukemia ip in BDF1 mice, survival T/C
Experiment: NCI In Vivo Anticancer Drug Screen. Data for tumor model L1210 Leukemia (intraperitoneal) in B6D2F1 (BDF1) mice
Details: endpoint: mean survival time, higher = longer survival
Procedure, shortened: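 Transplanted-tumor mice were given test agent; controls received vehicle only. Survival readings from the two groups were divided (treated over control).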

[1] = dose: 100.0 mg/kg/injection, schedule: Q04DX002 (ip), vehicle: Klucel (hydroxypropylcellulose) (HPC)
[2] = dose: 200.0 mg/kg/injection, schedule: Q04DX002 (ip), vehicle: Klucel (hydroxypropylcellulose) (HPC)
[3] = dose: 400.0 mg/kg/injection, schedule: Q04DX002 (ip), vehicle: Klucel (hydroxypropylcellulose) (HPC)
[4] = dose: 100.0 mg/kg/injection, schedule: Q04DX002 (ip), vehicle: saline with Tween-80
[5] = dose: 6.25 mg/kg/injection, schedule: Q01DX009 (ip), vehicle: saline
[6] = dose: 12.5 mg/kg/injection, schedule: Q01DX009 (ip), vehicle: saline
[7] = dose: 25.0 mg/kg/injection, schedule: Q01DX009 (ip), vehicle: saline
[8] = dose: 100.0 mg/kg/injection, schedule: Q01DX001 (ip), vehicle: saline
[9] = dose: 200.0 mg/kg/injection, schedule: Q01DX001 (ip), vehicle: saline
[10] = dose: 100.0 mg/kg/injection, schedule: Q01DX009 (ip), vehicle: Klucel (hydroxypropylcellulose) (HPC)
[11] = dose: 100.0 mg/kg/injection, schedule: Q01DX009 (ip), vehicle: saline
[12] = dose: 100.0 mg/kg/injection, schedule: Q04DX003 (ip), vehicle: saline with Tween-80
[13] = dose: 200.0 mg/kg/injection, schedule: Q01DX009 (ip), vehicle: Klucel (hydroxypropylcellulose) (HPC)
[14] = dose: 200.0 mg/kg/injection, schedule: Q01DX009 (ip), vehicle: saline
[15] = dose: 100.0 mg/kg/injection, schedule: Q04DX003 (ip), vehicle: Klucel (hydroxypropylcellulose) (HPC)
[16] = dose: 200.0 mg/kg/injection, schedule: Q04DX003 (ip), vehicle: Klucel (hydroxypropylcellulose) (HPC)
[17] = dose: 400.0 mg/kg/injection, schedule: Q04DX003 (ip), vehicle: Klucel (hydroxypropylcellulose) (HPC)
[18] = dose: 3.12 mg/kg/injection, schedule: Q01DX009 (ip), vehicle: saline
[19] = dose: 400.0 mg/kg/injection, schedule: Q01DX001 (ip), vehicle: saline

Measured: T/C

O=C1c2c(O)cccc2C(Br)c2cccc(O)c21
inactive: dose: 100.0 mg/kg/injection, schedule: Q01DX001 (ip), vehicle: water 108 % of control | dose: 100.0 mg/kg/injection, schedule: Q01DX009 (ip), vehicle: water 103 % of control | dose: 200.0 mg/kg/injection, schedule: Q01DX001 (ip), vehicle: water 108 % of control | dose: 200.0 mg/kg/injection, schedule: Q01DX009 (ip), vehicle: water 100 % of control | dose: 300.0 mg/kg/injection, schedule: Q01DX001 (ip), vehicle: water 104 % of control | dose: 400.0 mg/kg/injection, schedule: Q01DX009 (ip), vehicle: water 90 % of control

ClC(Cl)(Cl)c1ccn(-c2ccccc2)n1
inactive: dose: 25.0 mg/kg/injection, schedule: Q01DX001 (ip), vehicle: Klucel (hydroxypropylcellulose) (HPC) 110 % of control | dose: 50.0 mg/kg/injection, schedule: Q01DX001 (ip), vehicle: Klucel (hydroxypropylcellulose) (HPC) 100 % of control | dose: 100.0 mg/kg/injection, schedule: Q01DX001 (ip), vehicle: Klucel (hydroxypropylcellulose) (HPC) 101 % of control and 110 % of control

O=C(Nc1ccccc1Cl)Oc1ccc(C2CCCCC2)cc1
inactive: [1] 103 % of control | [2] 98 % of control | [3] 98 % of control

CC/C(C)=C\CC/C(C)=C/COc1cccc(OC)c1
inactive: [4] 108 % of control | dose: 200.0 mg/kg/injection, schedule: Q04DX002 (ip), vehicle: saline with Tween-80 101 % of control | dose: 400.0 mg/kg/injection, schedule: Q04DX002 (ip), vehicle: saline with Tween-80 103 % of control

Cc1cccc[n+]1CCC(N)=O
inactive: [5] 97 % of control | [6] 97 % of control | [7] 108 % of control

CC[n+]1cn(-c2ccc(S(=O)(=O)[O-])cc2)nn1
inactive: [8] 101 % of control | [9] 110 % of control

CCSc1ccc2c(cc1=O)[C@@H](NC1OC(CO)C(O)C(O)C1O)CCc1cc(OC)c(OC)c(OC)c1-2 (stereo not given in full)
inactive: dose: 50.0 mg/kg/injection, schedule: Q01DX009 (ip), vehicle: other 105 % of control | dose: 100.0 mg/kg/injection, schedule: Q01DX009 (ip), vehicle: other 102 % of control | dose: 200.0 mg/kg/injection, schedule: Q01DX009 (ip), vehicle: other 114 % of control | dose: 400.0 mg/kg/injection, schedule: Q01DX009 (ip), vehicle: other 114 % of control

Cn1c(Cl)c(/C=N/NC(N)=S)c2ccccc21
inactive: dose: 50.0 mg/kg/injection, schedule: Q04DX002 (ip), vehicle: Klucel (hydroxypropylcellulose) (HPC) 91 % of control | [1] 91 % of control | [2] 87 % of control

Nc1nc(N)c2nc(CBr)cnc2n1
inactive: [5] 105 % of control | [6] 88 % of control | [7] 115 % of control

CC(=O)Nc1cccc2cccnc12
inactive: dose: 12.5 mg/kg/injection, schedule: Q01DX009 (ip), vehicle: saline with Tween-80 92 % of control | dose: 25.0 mg/kg/injection, schedule: Q01DX009 (ip), vehicle: saline with Tween-80 95 % of control | dose: 50.0 mg/kg/injection, schedule: Q01DX009 (ip), vehicle: saline with Tween-80 90 % of control | dose: 75.0 mg/kg/injection, schedule: Q01DX001 (ip), vehicle: other 104 % of control | dose: 75.0 mg/kg/injection, schedule: Q01DX009 (ip), vehicle: other 98 % of control | dose: 75.0 mg/kg/injection, schedule: Q01DX009 (ip), vehicle: saline with Tween-80 87 % of control | [10] 90 % of control | [11] 93 % of control | [12] 107 % of control | dose: 100.0 mg/kg/injection, schedule: Q04DX003 (ip), vehicle: saline 108 % of control | dose: 150.0 mg/kg/injection, schedule: Q01DX001 (ip), vehicle: other 103 % of control | [13] 93 % of control | [14] 95 % of control | dose: 200.0 mg/kg/injection, schedule: Q04DX003 (ip), vehicle: saline 106 % of control | dose: 300.0 mg/kg/injection, schedule: Q01DX001 (ip), vehicle: other 94 % of control | dose: 400.0 mg/kg/injection, schedule: Q04DX003 (ip), vehicle: saline 89 % of control

C[n+]1ccc(/C=C/C(=O)Nc2ccccc2)cc1
inactive: [15] 104 % of control | [16] 108 % of control | [17] 98 % of control

CCN(CC)CCC(=O)c1cccs1
inactive: [11] 87 % of control | [14] 89 % of control

NC(=O)c1ccc[n+](Cc2c(Cl)cccc2Cl)c1
inactive: dose: 1.56 mg/kg/injection, schedule: Q01DX009 (ip), vehicle: saline 111 % of control | [18] 122 % of control | [5] 122 % of control

O=[N+]([O-])c1ccc2c(c1)OCO2
inactive: [1] 103 % of control | [2] 88 % of control | [3] 94 % of control

COc1ccc(C[As+](Cc2ccccc2)(Cc2ccc(OC)cc2)Cc2ccc(OC)cc2)cc1
inactive: dose: 5.0 mg/kg/injection, schedule: Q01DX001 (ip), vehicle: saline 103 % of control | dose: 10.0 mg/kg/injection, schedule: Q01DX001 (ip), vehicle: saline 98 % of control | dose: 20.0 mg/kg/injection, schedule: Q01DX001 (ip), vehicle: saline 96 % of control

NC1(N)Sc2nc3ccccc3nc2S1
inactive: [4] 101 % of control

CCCCCOC(=O)CCCc1ccc(N(CCCl)CCCl)cc1
inactive: dose: 50.0 mg/kg/injection, schedule: Q01DX009 (ip), vehicle: saline 123 % of control | [11] 86 % of control

CC(=O)c1ccc2nc(C)cc(Cl)c2c1
inactive: [8] 96 % of control | [9] 91 % of control | [19] 96 % of control

S=c1nc[nH]c2c1ncn2-n1cccc1
inactive: dose: 100.0 mg/kg/injection, schedule: Q01DX001 (ip), vehicle: saline with Tween-80 97 % of control | [12] 103 % of control | dose: 200.0 mg/kg/injection, schedule: Q01DX001 (ip), vehicle: saline with Tween-80 87 % of control | dose: 200.0 mg/kg/injection, schedule: Q04DX003 (ip), vehicle: saline with Tween-80 98 % of control | dose: 400.0 mg/kg/injection, schedule: Q01DX001 (ip), vehicle: saline with Tween-80 92 % of control | dose: 400.0 mg/kg/injection, schedule: Q04DX003 (ip), vehicle: saline with Tween-80 98 % of control

O=S1(=O)N2CN3CCN(C2)CN1C3
inactive: [10] 105 % of control | [15] 95 % of control | [13] 115 % of control | [16] 103 % of control | dose: 400.0 mg/kg/injection, schedule: Q01DX009 (ip), vehicle: Klucel (hydroxypropylcellulose) (HPC) 98 % of control | [17] 98 % of control

Nc1ncnc2c1ccn2C1CCC(CO)C1 (stereo not given)
inactive: dose: 50.0 mg/kg/injection, schedule: Q01DX001 (ip), vehicle: other 108 % of control | dose: 100.0 mg/kg/injection, schedule: Q01DX001 (ip), vehicle: other 103 % of control | dose: 200.0 mg/kg/injection, schedule: Q01DX001 (ip), vehicle: other 101 % of control

C=CC=O
inactive: dose: 3.0 mg/kg/injection, schedule: Q01DX009 (ip), vehicle: saline 96 % of control | [18] 98 % of control | dose: 3.12 mg/kg/injection, schedule: Q04DX003 (ip), vehicle: saline 91 % of control | dose: 6.0 mg/kg/injection, schedule: Q01DX009 (ip), vehicle: saline 102 % of control | [5] 90 % of control | dose: 6.25 mg/kg/injection, schedule: Q04DX003 (ip), vehicle: saline 97 % of control | dose: 7.5 mg/kg/injection, schedule: Q04DX003 (ip), vehicle: saline 88 % of control | dose: 12.0 mg/kg/injection, schedule: Q01DX009 (ip), vehicle: saline 102 % of control | dose: 12.0 mg/kg/injection, schedule: Q04DX003 (ip), vehicle: Klucel (hydroxypropylcellulose) (HPC) 98 % of control | dose: 12.5 mg/kg/injection, schedule: Q04DX003 (ip), vehicle: saline 89 % of control | dose: 25.0 mg/kg/injection, schedule: Q04DX003 (ip), vehicle: Klucel (hydroxypropylcellulose) (HPC) 101 % of control | [8] 117 % of control | [9] 109 % of control | [19] 98 % of control
